Data published in patent US11542287B2, “Alkyldiphenylmethane protective agent” (priority 2017, dated 2023).
Converted amounts (≈) assume the structure as drawn. Peptide text beside a SMILES is read from it.

Assay: physchem
Format: physicochemical
Protocol: Results of measurement of solubility of a peptide protected with an alkyldiphenylmethane protective agent of the present invention are shown below.
Peptide used as model: H-Phe-Leu-Gly-NH2
H-Phe-Leu-Gly-NH2 and H-Phe-Leu-Gly-NH-(TIPS2-Dpm(Me)) were synthesized, CPME (cyclopentyl methyl ether) was saturated with each of the compounds at 25° C., and the solubility was measured.
As a result, merely 0.2 mM of H-Phe-Leu-Gly-NH2 to which an alkyldiphenylmethane protective agent was not bonded was dissolved in CPME. […] H-Phe-Leu-Gly-NH2 and H-Phe-Leu-Gly-NH-(TIPS2-Dpm(Me)) represent the following structures.

| Compound | solubility | increase in solubility versus H-Phe-Leu-Gly-NH2 |
| --- | --- | --- |
| CC(C)C[C@H](NC(=O)[C@@H](N)Cc1ccccc1)C(=O)NCC(N)=O [H-Phe-Leu-Gly-NH2, reference compound] (H-Phe-Leu-Gly-NH2) | 200 µM (≈ 0.0669 mg/mL) | – |
| CC(C)C[C@H](NC(=O)[C@@H](N)Cc1ccccc1)C(=O)NCC(=O)NC(C)(c1ccc(OCCCCCCCCCCCO[Si](C(C)C)(C(C)C)C(C)C)cc1)c1ccc(OCCCCCCCCCCCO[Si](C(C)C)(C(C)C)C(C)C)cc1 [H-Phe-Leu-Gly-NH-(TIPS2-Dpm(Me))] | ≥ 838000 µM | ≥ 4,190 fold |
